The record followed here is patent US7851474B2, “Dipiperazinyl ketones and related analogues” (Neurogen Corporation, priority 2005, dated 2010).

Read-outs that look alike come from different tables or passages of the source.

What is called Ki is a dissociation constant, usually derived from enzyme kinetics or from competition with a known ligand.

In this assay the target is T1, chimeric human H3 receptor (Homo sapiens, UniProt Q9Y5N1, E19D).
T1 construct: made in house; host or cells: Sf9 insect cells (baculovirus infection); P2 membrane preparation
T1 sequence (Q9Y5N1 with tags, fused parts or gaps E19D): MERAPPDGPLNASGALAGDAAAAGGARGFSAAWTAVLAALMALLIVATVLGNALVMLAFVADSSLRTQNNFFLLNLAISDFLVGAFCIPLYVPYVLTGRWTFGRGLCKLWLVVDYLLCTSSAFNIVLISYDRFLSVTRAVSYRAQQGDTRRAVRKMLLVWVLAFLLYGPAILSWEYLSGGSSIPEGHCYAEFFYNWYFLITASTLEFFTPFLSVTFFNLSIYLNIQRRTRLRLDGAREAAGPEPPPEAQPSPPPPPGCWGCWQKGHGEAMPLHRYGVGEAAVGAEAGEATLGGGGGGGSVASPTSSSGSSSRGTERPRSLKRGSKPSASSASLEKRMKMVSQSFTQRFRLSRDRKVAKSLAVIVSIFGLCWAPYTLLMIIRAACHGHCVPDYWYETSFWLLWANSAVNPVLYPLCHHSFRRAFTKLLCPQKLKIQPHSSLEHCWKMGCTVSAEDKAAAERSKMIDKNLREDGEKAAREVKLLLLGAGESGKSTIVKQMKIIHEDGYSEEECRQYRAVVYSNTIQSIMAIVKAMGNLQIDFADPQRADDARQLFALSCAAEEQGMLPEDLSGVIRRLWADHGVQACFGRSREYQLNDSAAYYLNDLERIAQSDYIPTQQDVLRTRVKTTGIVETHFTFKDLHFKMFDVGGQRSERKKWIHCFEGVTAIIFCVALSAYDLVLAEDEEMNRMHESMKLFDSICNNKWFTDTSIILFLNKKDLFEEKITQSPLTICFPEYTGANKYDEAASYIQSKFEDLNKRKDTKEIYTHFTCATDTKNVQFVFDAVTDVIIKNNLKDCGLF
The experiment in a line: Chimeric human H3 receptor GTP binding assay (agonist-stimulated GTP-gamma35S binding, Example 7). Format: biochemical. To be noted: read-out: Ki. In a few lines:
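Sf9 membranes co-expressing the chimeric receptor and heterotrimeric G-protein subunits, 35 μg protein per tube, in pH 7.4 Tris buffer with 10 μM GDP. Test compounds at 10^−10 to 10^−6 M with 1 μM histamine, 60 min at room temperature. Filter-bound GTP-gamma^35S read by scintillation; IC50 from non-linear regression of dose-response curves.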
On the technique in general: GTPγS is a poorly hydrolysed GTP analogue; its binding reports G protein activation.

Setting [1] is: Table II, assay of Example 7, "*" in Ki.
Where [2] appears, read: Table II "Ki", symbol "*": Ki in the assay of Example 7.
[3] abbreviates: assay of Example 7, symbol * in column headed Ki of Table II.
The mark [4] stands for this setting: assay of Example 7, "*" in Ki of Table II.
Where [5] appears, read: Table II, "*" in Ki, assay of Example 7.

Consider `O=C(NCC1CC1)c1cccc(N2CCN(CC(=O)N3CCN(C4CCC4)CC3)CC2)c1` [Compound 1073, 3-{4-[2-(4-cyclobutylpiperazin-1-yl)-2-oxoethyl]piperazin-1-yl}-N-(cyclopropylmethyl) benzamide], for which the Ki under setting [1] was under 1000 nM.
For `CCC(C)N1CCN(C(=O)CN2CCN(c3cccc(C)c3C)CC2)CC1` (centres unmarked) [Compound 860, 1-sec-butyl-4-{[4-(2,3-dimethylphenyl)piperazin-1-yl]acetyl}piperazine], the Ki under setting [2] is under 1000 nM.
The same measure, in the same setting: under `CCC(C)N1CCN(C(=O)CN2CCN(c3cccc(C)c3)CC2)CC1` (centres unmarked) [Compound 876, 1-sec-butyl-4-{[4-(3-methylphenyl)piperazin-1-yl]acetyl}piperazine] stands under 1000 nM; under `O=C(CN1CCN(c2nc3ccccc3n2Cc2ccc(F)cc2)CC1)N1CCN(C2CCC2)CC1` [Compound 915, 2-{4-[2-(4-cyclobutylpiperazin-1-yl)-2-oxoethyl]piperazin-1-yl}-1-(4-fluorobenzyl)-1H-benzimidazole], under 1000 nM.
As for `O=C(CN1CCN(c2ccc(-c3ccc(F)c(Cl)c3)cc2)CC1)N1CCN(C2CCC2)CC1` [Compound 297, 1-(3′-chloro-4′-fluorobiphenyl-4-yl)-4-[2-(4-cyclobutylpiperazin-1-yl)-2-oxoethyl]piperazine], the Ki under setting [3] was under 1000 nM.
With `Cc1ccc(N2CCN(CC(=O)N3CCN(C4CCCC4)CC3)CC2C)cc1` (centres unmarked) [Compound 1109, 4-[2-(4-cyclopentylpiperazin-1-yl)-2-oxoethyl]-2-methyl-1-(4-methylphenyl)piperazine], the Ki under setting [1] was under 1000 nM.
For `O=C(CN1CCN(c2cnc(-c3ccc(Cl)c(F)c3)cn2)CC1)N1CCN(C2CCC2)CC1` [Compound 903, 2-(4-chloro-3-fluorophenyl)-5-{4-[2-(4-cyclobutylpiperazin-1-yl)-2-oxoethyl]piperazin-1-yl}pyrazine], under setting [2], the Ki was under 1000 nM.
Turning to `CC(C)CCNC(=O)c1ccc(N2CCN(CC(=O)N3CCN(C4CCC4)CC3)CC2)cc1` [Compound 1136, 4-{4-[2-(4-cyclobutylpiperazin-1-yl)-2-oxoethyl]piperazin-1-yl}-N-(3-methylbutyl)benzamide], the Ki under setting [1] is under 1000 nM.
As to `CC(=O)c1ccc(N2CCN(CC(=O)N3CCN(C4CCC4)CC3)CC2)c(Cl)c1` [Compound 295, 1-(3-chloro-4-{4-[2-(4-cyclobutylpiperazin-1-yl)-2-oxoethyl]piperazin-1-yl}phenyl)ethanone], under setting [3], the Ki is under 1000 nM.
Consider `O=C(CN1CCN(c2ccc(-c3cncnc3)nn2)CC1)N1CCN(C2CCC2)CC1` [Compound 1001, 3-{4-[2-(4-cyclobutylpiperazin-1-yl)-2-oxoethyl]piperazin-1-yl}-6-pyrimidin-5-ylpyridazine], for which the Ki under setting [1] is under 1000 nM.
With `O=C(CN1CCN(c2ccc(C(=O)N3CCCCCC3)cn2)CC1)N1CCN(C2CCC2)CC1` [Compound 415, 1-[(6-{4-[2-(4-cyclobutylpiperazin-1-yl)-2-oxoethyl]piperazin-1-yl}pyridin-3-yl)carbonyl]azepane], the Ki under setting [3] was under 1000 nM.
Consider `CCOc1cccc(-c2cnc(N3CCN(CC(=O)N4CCN(C5CCC5)CC4)CC3)cn2)c1` [Compound 935, 2-{4-[2-(4-cyclobutylpiperazin-1-yl)-2-oxoethyl]piperazin-1-yl}-5-(3-ethoxyphenyl)pyrazine], for which the inhibition constant Ki under setting [2] was under 1000 nM.
For `O=C(NC1CCC1)c1cccc(N2CCN(CC(=O)N3CCN(C4CCC4)CC3)CC2)c1` [Compound 1266, N-cyclobutyl-3-{4-[2-(4-cyclobutylpiperazin-1-yl)-2-oxoethyl]piperazin-1-yl}benzamide], the Ki under setting [4] was under 1000 nM.
For `O=C(NCC1CC1)c1ccc(N2CCN(CC(=O)N3CCN(C4CCC4)CC3)CC2)nc1` [Compound 1176, 6-{4-[2-(4-cyclobutylpiperazin-1-yl)-2-oxoethyl]piperazin-1-yl}-N-(cyclopropylmethyl) nicotinamide], the Ki under setting [4] is under 1000 nM.
Take `CC(=O)NC1CCN(CC(=O)N2CCN(C3CCCC3)CC2)C1` (centres unmarked) [Compound 1258, N-{1-[2-(4-cyclopentylpiperazin-1-yl)-2-oxoethyl]pyrrolidin-3-yl}acetamide]: the Ki under setting [4] was under 1000 nM.
For `Cc1cc(N2CCN(CC(=O)N3CCN(C4CCCC4)CC3)CC2)ccc1Cl` [Compound 351, 1-(4-chloro-3-methylphenyl)-4-[2-(4-cyclopentylpiperazin-1-yl)-2-oxoethyl]piperazine], the Ki under setting [3] was under 1000 nM.
Consider `O=C(CN1CCN(c2ccc(-c3ccc(F)cc3)cc2)CC1)N1CCN(C2CCC2)CC1` [Compound 774, 1-cyclobutyl-4-{[4-(4′-fluorobiphenyl-4-yl)piperazin-1-yl]acetyl}piperazine], for which the inhibition constant Ki under setting [2] was under 1000 nM.
`O=C(CN1CCN(c2ccc(Br)cc2)CC1)N1CCN(C2CCCCC2)CC1` [Compound 338, 1-(4-bromophenyl)-4-[2-(4-cyclohexylpiperazin-1-yl)-2-oxoethyl]piperazine]: the Ki under setting [3] is under 1000 nM.
For `COc1ccc(F)cc1-c1ccc(N2CCN(CC(=O)N3CCN(C4CCC4)CC3)CC2)cc1` [Compound 792, 1-cyclobutyl-4-{[4-(5′-fluoro-2′-methoxybiphenyl-4-yl)piperazin-1-yl]acetyl}piperazine], the Ki under setting [2] is under 1000 nM.
For the molecule `CCOC(=O)c1cccc(-c2cnc(N3CCN(CC(=O)N4CCN(C5CCC5)CC4)CC3)cn2)c1` [Compound 1195, ethyl 3-(5-{4-[2-(4-cyclobutylpiperazin-1-yl)-2-oxoethyl]piperazin-1-yl}pyrazin-2-yl)benzoate], the Ki under setting [4] was under 1000 nM.
Consider `O=C(CN1CCN(c2ccc(Cl)c(Cl)c2)CC1)N1CCN(C2CCCCC2)CC1` [Compound 815, 1-cyclohexyl-4-{[4-(3,4-dichlorophenyl)piperazin-1-yl]acetyl}piperazine], for which the Ki under setting [2] is under 1000 nM.
In the case of `CC(C)c1cccc(-c2ccc(N3CCN(CC(=O)N4CCN(C5CCC5)CC4)CC3)cc2)c1` [Compound 756, 1-cyclobutyl-4-{[4-(3′-isopropylbiphenyl-4-yl)piperazin-1-yl]acetyl}piperazine], under setting [5], the Ki is under 1000 nM.
Turning to `COCCN(C(=O)c1cccc(N2CCN(CC(=O)N3CCN(C4CCC4)CC3)CC2)c1)C(C)C` [Compound 1070, 3-{4-[2-(4-cyclobutylpiperazin-1-yl)-2-oxoethyl]piperazin-1-yl}-N-isopropyl-N-(2-methoxyethyl)benzamide], the Ki under setting [1] is under 1000 nM.
In the case of `COc1ccc(-c2ccc(N3CCN(CC(=O)N4CCN(C5CCC5)CC4)CC3)cc2)cc1C` [Compound 780, 1-cyclobutyl-4-{[4-(4′-methoxy-3′-methylbiphenyl-4-yl)piperazin-1-yl]acetyl}piperazine], under setting [2], the Ki was under 1000 nM.
Regarding `O=C(CN1CCN(c2ccc(C(=O)N3CCCC3)cn2)CC1)N1CCN(C2CCC2)CC1` [Compound 611, 1-cyclobutyl-4-({4-[5-(pyrrolidin-1-ylcarbonyl)pyridin-2-yl]piperazin-1-yl}acetyl)piperazine], the Ki under setting [5] is under 1000 nM.
On the same count and under the same terms, next, `COC[C@@H]1CCCN1C(=O)c1ccc(N2CCN(CC(=O)N3CCN(C4CCC4)CC3)CC2)cc1` [Compound 768, 1-cyclobutyl-4-{[4-(4-{[(2S)-2-(methoxymethyl)pyrrolidin-1-yl]carbonyl}phenyl)piperazin-1-yl]acetyl}piperazine]: under 1000 nM.
Turning to `O=C(CN1CCN(c2ccc(-c3cccc(Cl)c3Cl)nn2)CC1)N1CCN(C2CCC2)CC1` [Compound 1054, 3-{4-[2-(4-cyclobutylpiperazin-1-yl)-2-oxoethyl]piperazin-1-yl}-6-(2,3-dichlorophenyl)pyridazine], the Ki under setting [1] is under 1000 nM.
Turning to `CS(=O)(=O)c1ccc(N2CCN(CC(=O)N3CCN(C4CCC4)CC3)CC2)c(F)c1` [Compound 581, 1-cyclobutyl-4-({4-[2-fluoro-4-(methylsulfonyl)phenyl]piperazin-1-yl}acetyl)piperazine], under setting [5], the Ki is under 1000 nM.
Take `CC(C)N1CCN(C(=O)CN2CCN(c3ccc(C#N)cc3)CC2)CC1` [Compound 1149, 4-{4-[2-(4-isopropylpiperazin-1-yl)-2-oxoethyl]piperazin-1-yl}benzonitrile]: the Ki under setting [4] is under 1000 nM.
With `CCN1CCN(C(=O)CN2CCN(c3ccc(Cl)c(C)c3)CC2)CC1` [Compound 352, 1-(4-chloro-3-methylphenyl)-4-[2-(4-ethylpiperazin-1-yl)-2-oxoethyl]piperazine], the Ki under setting [3] is under 1000 nM.
Turning to `CC(C)N1CCN(C(=O)CN2CCN(c3ccc(F)cc3)CC2)CC1` [Compound 361, 1-(4-fluorophenyl)-4-[2-(4-isopropylpiperazin-1-yl)-2-oxoethyl]piperazine], under setting [3], the inhibitory constant (Ki) is under 1000 nM.
On to `Cc1cc(C)cc(-c2cnc(N3CCN(CC(=O)N4CCN(C5CCC5)CC4)CC3)cn2)c1` [Compound 929, 2-{4-[2-(4-cyclobutylpiperazin-1-yl)-2-oxoethyl]piperazin-1-yl}-5-(3,5-dimethylphenyl)pyrazine], for which the Ki under setting [2] was under 1000 nM.
As for `O=C(CN1CCN(c2ccc(F)c(C(F)(F)F)c2)CC1)N1CCN(C2CCC2)CC1` [Compound 607, 1-cyclobutyl-4-({4-[4-fluoro-3-(trifluoromethyl)phenyl]piperazin-1-yl}acetyl)piperazine], under setting [5], the Ki is under 1000 nM.
For the molecule `N#Cc1ccc(N2CCN(CC(=O)N3CCN(C4CCCC4)CC3)CC2)cc1` [Compound 1148, 4-{4-[2-(4-cyclopentylpiperazin-1-yl)-2-oxoethyl]piperazin-1-yl}benzonitrile], the Ki under setting [4] is under 1000 nM.
On to `CC(C)c1ccccc1-c1ccc(N2CCN(CC(=O)N3CCN(C4CCC4)CC3)CC2)cc1` [Compound 709, 1-cyclobutyl-4-{[4-(2′-isopropylbiphenyl-4-yl)piperazin-1-yl]acetyl}piperazine], for which the Ki under setting [5] is under 1000 nM.
